Measurements taken from PubChem BioAssay AID1963851 (Molecular Pharmacology Branch, DTP, NCI, 2024).
Where “and” joins values, the source holds several entries; their conditions need not be identical. Equal values may be shown once.

Test system: 188146-221-R-J1-PDC complex spheroid viability
Experiment: Anticancer human tumor 188146-221-R-J1-PDC patient-derived colon adenocarcinoma cell line growth inhibition [POLQ]
Conditions: for viability, T/C: stronger effect = lower value
Description: Multicellular complex tumor spheroid response to Polymerase (POL) inhibitors (novobiocin, ART-558, RP6685) in combination with a variety of drugs and investigational agents in selected tumor cell lines
The POL inhibitors (novobiocin, ART-558, and RP6685) were evaluated both individually and in combination with standard of care and investigational anticancer small molecules within a complex spheroid model of solid tumors. . Complex spheroids include a stromal component modeled by human endothelial cells (HUVEC) and fibroblasts modeled by human mesenchymal stem cells (MSCs). The concentration ranges selected for each drug and investigational agent were based upon clinically achievable concentrations if the clinical Cmax of the agent was known.
Compounds. The drugs and investigational agents: novobiocin (NSC847541), ART-558 (NSC835418), RP-6685 (NSC848927), peposertib (NSC802822), ceralasertib (NSC780249), elimusertib (NSC800525), camonsertib (NSC841442), AZD-1390 (NSC803789), olaparib (NSC753686), talazoparib (NSC767125), rucaparib (NSC756644), sotorasib (NSC818433), MRTX-1133 (NSC836407), SN-38 (NSC673596), topotecan (NSC609699), epotoside (NSC141540), doxorubicin (NSC123127), gemcitabine (NSC613327), 5-fluorouracil (NSC19893), paclitaxel (NSC125973), vemurafenib (NSC761431), MSA-2 (NSC828583), SN-011 (NSC837082), adavosertib (NSC754352), prexasertib (NSC758257), carboplatin (NSC241240) and oxaliplatin (NSC266046), were obtained from the National Cancer Institute (NCI) Developmental Therapeutics Program Chemical Repository (21). The FDA-approved anticancer drug set is available from the Developmental Therapeutics Program at https://dtp.cancer.gov/organization/dscb/obtaining/. […] The stock solutions were prepared in dimethyl sulfoxide (DMSO, Sigma-Aldrich, St. Louis, MO, cat. D2650), except for the platinum compounds which were prepared in saline (Quality Biological, Gaithersburg, MD, cat. 114-055-101), at 800-fold the tested concentration and stored at -70 degrees C prior to their use. All drugs and investigational agents were tested over a range starting from a high concentration at or near the clinical Cmax and decreasing in half-log increments. If the clinical Cmax for an agent had not been determined, the highest concentration tested was 10 microM, except for SN-38, which was tested at a high concentration of 1 microM.
Cell Culture. All cells were maintained in an incubator at 37 degrees C and 5% CO2 with 95% humidity. The PDC lines were cultured according to standard operating procedures established by the NCI PDMR (https://pdmr.cancer.gov). Table 3 of the manuscript, lists the cell lines along with the number of the three cell types plated to form the mct-spheroids and media for tumor cell growth. After thawing, all PDC lines, except 997537-175-T-J1-PDC and 415267-285-R-J2-PDC, were cultured in Matrigel-coated flasks prepared with a working solution of 1X Ham's F-12 nutrient mix, without supplementation (Thermo Fisher Scientific, cat. 11765054), 100 U/mL penicillin-streptomycin (Thermo Fisher Scientific, cat. 15140122), and 2.5% Matrigel (Corning Inc., Corning, NY, cat. 354248) for the first three passages. The two PDC lines 997537-175-T-J1-PDC and 415267-285-R-J2-PDC were cultured on uncoated flasks. The 857933-349-R-J2-PDC line was cultured in 6C/Colon 1B media containing advanced DMEM/F-12 (Thermo Fisher Scientific, cat. 12634028), 10 mM HEPES (Thermo Fisher Scientific, cat. 15630080), 1X GlutaMAX supplement (Thermo Fisher Scientific, cat. 35050061), 0.1 mg/mL primocin (InvivoGen, San Diego, CA, cat. ant-pm-2), 10% defined fetal bovine serum, heat inactivated (HyClone Laboratories Inc., Logan, UT, cat. SH30070.03HI), 50% L-WRN conditioned media (ATCC, cat. CRL-3276), 1.25 mM N-Acetyl-L-cysteine (Sigma-Aldrich, cat. A9165), 10 mM nicotinamide (Sigma-Aldrich, cat. N0636), 1X B-27 supplement (Thermo Fisher Scientific, cat. 17504044), 1X N-2 supplement (Thermo Fisher Scientific, cat. […]
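Further: spheroids exposed to compounds for seven days.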
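Wherever viability, T/C is given: 100% = DMSO vehicle control viability.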

Question: CNCc1ccc(-c2[nH]c3cc(F)cc4c3c2CCNC4=O)cc1 + COC1C(OC(N)=O)C(O)C(Oc2ccc3c(O)c(NC(=O)c4ccc(O)c(CC=C(C)C)c4)c(=O)oc3c2C)OC1(C)C was tested. Which IC50 (curve of first compound, second compound 0.0316 µM) did it give?
Answer: > 10 µM

Question: What about the IC50 (curve of first compound, second compound 0.1 µM) of the same compound?
Answer: > 10 µM

Question: And the IC50 (curve of first compound, second compound 0.316 µM)?
Answer: > 10 µM

Question: And the IC50 (curve of first compound, second compound 1 µM)?
Answer: > 10 µM

Question: What about the IC50 (curve of first compound, second compound 3.16 µM) of the same compound?
Answer: > 10 µM

Question: And the IC50 (curve of first compound, second compound 10 µM)?
Answer: > 10 µM

Question: And the viability, T/C (second compound 0.0316 µM, first compound 0.0316 µM)?
Answer: 111%

Question: And the viability, T/C (second compound 0.0316 µM, first compound 0.1 µM)?
Answer: 98.3%

Question: What about the viability, T/C (second compound 0.0316 µM, first compound 0.316 µM) of the same compound?
Answer: 109%

Question: And the viability, T/C (second compound 0.0316 µM, first compound 1 µM)?
Answer: 102%

Question: What about the viability, T/C (second compound 0.0316 µM, first compound 3.16 µM) of the same compound?
Answer: 103%

Question: And the viability, T/C (second compound 0.0316 µM, first compound 10 µM)?
Answer: 96.5%

Question: And the viability, T/C (second compound 0.1 µM, first compound 0.0316 µM)?
Answer: 118%

Question: What about the viability, T/C (second compound 0.1 µM, first compound 0.1 µM) of the same compound?
Answer: 104%

Question: What about the viability, T/C (second compound 0.1 µM, first compound 0.316 µM) of the same compound?
Answer: 106%

Question: And the viability, T/C (second compound 0.1 µM, first compound 1 µM)?
Answer: 99.6%

Question: What about the viability, T/C (second compound 0.1 µM, first compound 3.16 µM) of the same compound?
Answer: 102%

Question: What about the viability, T/C (second compound 0.1 µM, first compound 10 µM) of the same compound?
Answer: 117%

Question: And the viability, T/C (second compound 0.316 µM, first compound 0.0316 µM)?
Answer: 106%

Question: What about the viability, T/C (second compound 0.316 µM, first compound 0.1 µM) of the same compound?
Answer: 101%

Question: What about the viability, T/C (second compound 0.316 µM, first compound 0.316 µM) of the same compound?
Answer: 102%

Question: What about the viability, T/C (second compound 0.316 µM, first compound 1 µM) of the same compound?
Answer: 111%

Question: What about the viability, T/C (second compound 0.316 µM, first compound 3.16 µM) of the same compound?
Answer: 112%

Question: And the viability, T/C (second compound 0.316 µM, first compound 10 µM)?
Answer: 104%

Question: And the viability, T/C (second compound 1 µM, first compound 0.0316 µM)?
Answer: 108%

Question: What about the viability, T/C (second compound 1 µM, first compound 0.1 µM) of the same compound?
Answer: 110%

Question: What about the viability, T/C (second compound 1 µM, first compound 0.316 µM) of the same compound?
Answer: 106%

Question: And the viability, T/C (second compound 1 µM, first compound 1 µM)?
Answer: 105%

Question: What about the viability, T/C (second compound 1 µM, first compound 3.16 µM) of the same compound?
Answer: 99.5%

Question: What about the viability, T/C (second compound 1 µM, first compound 10 µM) of the same compound?
Answer: 115%

Question: And the viability, T/C (second compound 3.16 µM, first compound 0.0316 µM)?
Answer: 98.1%

Question: What about the viability, T/C (second compound 3.16 µM, first compound 0.1 µM) of the same compound?
Answer: 99.8%

Question: What about the viability, T/C (second compound 3.16 µM, first compound 0.316 µM) of the same compound?
Answer: 106%

Question: And the viability, T/C (second compound 3.16 µM, first compound 1 µM)?
Answer: 101%

Question: And the viability, T/C (second compound 3.16 µM, first compound 3.16 µM)?
Answer: 111%

Question: And the viability, T/C (second compound 3.16 µM, first compound 10 µM)?
Answer: 107%

Question: And the viability, T/C (second compound 10 µM, first compound 0.0316 µM)?
Answer: 111%

Question: What about the viability, T/C (second compound 10 µM, first compound 0.1 µM) of the same compound?
Answer: 103%

Question: What about the viability, T/C (second compound 10 µM, first compound 0.316 µM) of the same compound?
Answer: 110%

Question: What about the viability, T/C (second compound 10 µM, first compound 1 µM) of the same compound?
Answer: 93.2%

Question: What about the viability, T/C (second compound 10 µM, first compound 3.16 µM) of the same compound?
Answer: 117%

Question: What about the viability, T/C (second compound 10 µM, first compound 10 µM) of the same compound?
Answer: 121%

Question: Which viability, T/C (compound 0.0316 µM) does the source give for Nc1ccc(C#CCN(C(=O)Cc2ncc(C(F)(F)F)cc2C(F)(F)F)c2ccc(F)cc2)nn1 here?
Answer: 94.8% [middle of 12 runs]

Question: What about the viability, T/C (compound 0.1 µM) of the same compound?
Answer: 99.1% [middle of 13 runs]

Question: What about the viability, T/C (compound 0.316 µM) of the same compound?
Answer: 105% [middle of 13 runs]

Question: And the viability, T/C (compound 1 µM)?
Answer: 102% [middle of 13 runs]

Question: And the viability, T/C (compound 3.16 µM)?
Answer: 101% [middle of 12 runs]

Question: And the viability, T/C (compound 10 µM)?
Answer: 108% [middle of 13 runs]

Question: And the IC50 (compound alone, run of 11/06/2023)?
Answer: > 10 µM

Question: With CNCc1ccc(-c2[nH]c3cc(F)cc4c3c2CCNC4=O)cc1 as the compound, how does the viability, T/C (compound 0.0316 µM) read?
Answer: 111% and 108% and 115%

Question: What about the viability, T/C (compound 0.1 µM) of the same compound?
Answer: 108% and 97.9% and 106%

Question: And the viability, T/C (compound 0.316 µM)?
Answer: 102% and 109% and 99.4%

Question: And the viability, T/C (compound 1 µM)?
Answer: 105% and 104% and 103%

Question: What about the viability, T/C (compound 3.16 µM) of the same compound?
Answer: 112% and 105% and 113%

Question: And the viability, T/C (compound 10 µM)?
Answer: 100% and 99.3% and 95.5%

Question: What about the IC50 (curve of compound) of the same compound?
Answer: > 10 µM

Question: CCc1cc2c(N3CCc4c(cc(Cn5ccnc5)cc4-c4cn(C)nc4C(F)(F)F)C3=O)cc(C)nc2c(OC)n1 was tested. Which viability, T/C (compound 0.0316 µM) did it give?
Answer: 114% and 97.3% and 106%

Question: What about the viability, T/C (compound 0.1 µM) of the same compound?
Answer: 114% and 95.4% and 108%

Question: And the viability, T/C (compound 0.316 µM)?
Answer: 95.9% and 83.1% and 98.9%

Question: What about the viability, T/C (compound 1 µM) of the same compound?
Answer: 85.5% and 80.4% and 92.5%

Question: And the viability, T/C (compound 3.16 µM)?
Answer: 71% and 77.1% and 66.7%

Question: And the viability, T/C (compound 10 µM)?
Answer: 41.5% and 47.2% and 47.6%

Question: And the IC50 (curve of compound)?
Answer: 7.26 µM and 9.62 µM and 8.6 µM

Question: Which viability, T/C (compound 0.0316 µM) does the source give for COc1ccc([C@@H](O)c2cc(-c3ncnc4cc(N5CCOCC5)ccc34)c(F)cc2Cl)nn1 here?
Answer: 102% and 91.7% and 100%

Question: And the viability, T/C (compound 0.1 µM)?
Answer: 101% and 92.3% and 96.1%

Question: What about the viability, T/C (compound 0.316 µM) of the same compound?
Answer: 90.7% and 97.8% and 96.1%

Question: What about the viability, T/C (compound 1 µM) of the same compound?
Answer: 90.2% and 101% and 91.3%

Question: What about the viability, T/C (compound 3.16 µM) of the same compound?
Answer: 68.4% and 78.3% and 67.7%

Question: And the viability, T/C (compound 10 µM)?
Answer: 32.3% and 39.1% and 29.9%

Question: What about the IC50 (curve of compound) of the same compound?
Answer: 5.75 µM and 7.26 µM and 5.43 µM

Question: How did the viability, T/C (compound 0.0316 µM) turn out when CC(C)n1c(=O)n(C)c2cnc3cc(F)c(-c4ccc(OCCCN5CCCCC5)nc4)cc3c21 was run?
Answer: 96.9% and 102% and 108%

Question: And the viability, T/C (compound 0.1 µM)?
Answer: 111% and 96.7% and 100%

Question: What about the viability, T/C (compound 0.316 µM) of the same compound?
Answer: 88.3% and 89.4% and 92.5%

Question: And the viability, T/C (compound 1 µM)?
Answer: 105% and 101% and 110%

Question: And the viability, T/C (compound 3.16 µM)?
Answer: 104% and 106% and 88.8%

Question: And the viability, T/C (compound 10 µM)?
Answer: 77% and 95.2% and 71.2%

Question: And the IC50 (curve of compound)?
Answer: > 10 µM
